In PubChem BioAssay (NCI) one finds TGI and GI50 data, which are given here for ten molecules.

Where “and” joins values, the source holds several entries; their conditions need not be identical. Equal entries are not always repeated.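 Each compound was tested at five concentrations against cells in 96-well plates for 48 hours. GI50: concentration for 50% inhibition of growth. The concentration for full growth arrest is given as TGI.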

Among the test systems are HS 578T breast; SF-295 CNS; HCT-15 colon; MDA-N; MDA-MB-231 breast; A498 renal; SK-MEL-2 melanoma; RPMI-8226 leukemia; IGROV1 ovarian.
What all share (experiment): DTP human tumour cell line panel, 48 h

On to `COC1=Nc2ccccc2S(=O)(=O)C=C1`, for which the TGI is 53.4 µM with HS 578T breast; more than 88.1 µM in the test on SF-295 CNS; 7.89 µM in the test on HCT-15 colon; 20.8 µM in the test with MDA-N; 27.2 µM in the test with MDA-MB-231 breast; 33 µM in the test on A498 renal. Also, the TGI in the test with SK-MEL-2 melanoma came out at 35.8 µM; with RPMI-8226 leukemia it was 4.81 µM; in the test on IGROV1 ovarian it was 28.1 µM.

On to `CCCCCC/C=C\CCCCCCCCCC1=CC(=O)C=C(OC)C1=O`, for which the TGI amounted to 41.7 µM in the test on HS 578T breast; 13.2 µM in the test on SF-295 CNS; 11.1 µM in the test with HCT-15 colon; 21.8 µM in the test on MDA-N; 18.4 µM in the test with MDA-MB-231 breast; 13.5 µM with A498 renal. The TGI came out at 18.3 µM in the test on SK-MEL-2 melanoma, 7.83 µM with RPMI-8226 leukemia and 3.86 µM in the test on IGROV1 ovarian.

For the molecule `O=C1CCc2c(sc3[nH]c(=S)n(Cc4ccccc4)c(=O)c23)C1`, the GI50 in the test with HS 578T breast was 3.09 µM; in the test on SF-295 CNS, 2.46 µM; with HCT-15 colon, 2.78 µM; in the test on MDA-MB-231 breast, 4.54 µM; in the test on A498 renal it was 3.44 µM; in the test with SK-MEL-2 melanoma, 2.49 µM. Moreover, the results for the GI50 with RPMI-8226 leukemia and in the test on IGROV1 ovarian were 1.18 µM and 5.11 µM, respectively. Besides, the TGI with HS 578T breast was more than 100 µM; in the test on SF-295 CNS, 7.23 µM; in the test with HCT-15 colon it was 13.8 µM; in the test on MDA-MB-231 breast it was more than 100 µM; with A498 renal it was more than 100 µM; in the test with SK-MEL-2 melanoma it was 5.81 µM. The TGI with RPMI-8226 leukemia is 9.79 µM; with IGROV1 ovarian, more than 100 µM.

Regarding `C[C@H]1C(Oc2ccc(O)cc2)OC2OC3(C)CCC4[C@H](C)CCC1C24OO3` (stereo partly specified), the GI50 was 11.9 µM in the test with HS 578T breast; 16.2 µM in the test on SF-295 CNS; 2.36 µM in the test on HCT-15 colon; 11.1 µM with MDA-N; 15.8 µM in the test on MDA-MB-231 breast; 16.7 µM in the test with A498 renal. The results for the GI50 with SK-MEL-2 melanoma and in the test on IGROV1 ovarian were 7.1 µM and 16.7 µM, respectively. Moreover, the TGI in the test with HS 578T breast amounted to 32.7 µM; in the test on SF-295 CNS it was 34.5 µM; in the test on HCT-15 colon, 23.8 µM; in the test with MDA-N it was 26.4 µM; in the test with MDA-MB-231 breast it was 30.9 µM; in the test on A498 renal, 31.2 µM. In addition, the TGI in the test on SK-MEL-2 melanoma was 23 µM; with RPMI-8226 leukemia it was more than 63.1 µM; with IGROV1 ovarian it was 32.5 µM.

Turning to `COc1cccc2[nH]c(-c3ccccn3)nc12`, the TGI in the test with HS 578T breast, in the test on SF-295 CNS, with HCT-15 colon, with MDA-N, in the test with MDA-MB-231 breast and in the test on A498 renal was more than 100 µM throughout. The concentration for total growth inhibition (TGI) in the test with SK-MEL-2 melanoma, with RPMI-8226 leukemia and in the test on IGROV1 ovarian was more than 100 µM throughout.

Regarding `COc1ccc(C(=O)COc2cccc(/C=C3\CSc4ccc(C)cc4C3=O)c2)cc1`, the GI50 in the test with HS 578T breast was 40.4 µM; in the test on SF-295 CNS it was 15.8 µM; in the test with HCT-15 colon, 11.7 µM; in the test on MDA-MB-231 breast, 24 µM; with A498 renal, more than 100 µM; in the test with SK-MEL-2 melanoma, 15.9 µM. Further, the GI50 is 1.89 µM in the test with RPMI-8226 leukemia and 12.2 µM with IGROV1 ovarian. Further, the TGI in the test with HS 578T breast, in the test on SF-295 CNS, in the test with HCT-15 colon, in the test with MDA-MB-231 breast, in the test with A498 renal and in the test with SK-MEL-2 melanoma was more than 100 µM throughout. The total growth inhibition concentration (TGI) worked out at 6.47 µM in the test on RPMI-8226 leukemia and 43.8 µM in the test on IGROV1 ovarian.

For the molecule `O=C(O)c1ccc2c(c1)nc(Nc1cccc(Cl)c1)c1ccncc12`, the GI50 was 0.435 µM and 1.17 µM in the test on HS 578T breast; 2.74 µM and 3.17 µM in the test with SF-295 CNS; 3.12 µM and 2.92 µM in the test with HCT-15 colon; 4.18 µM and 3.57 µM in the test on MDA-MB-231 breast; 0.231 µM and 1.99 µM in the test with A498 renal; 2.4 µM and 1.86 µM in the test with SK-MEL-2 melanoma. Moreover, the GI50 in the test with RPMI-8226 leukemia is 2.68 µM and 2.5 µM; in the test with IGROV1 ovarian, 3.56 µM and 2.68 µM. The TGI was 3.88 µM and 6.21 µM in the test with HS 578T breast; more than 42.9 µM in the test with SF-295 CNS; 21.7 µM and > 10 µM in the test with HCT-15 colon; 34.2 µM and > 10 µM in the test on MDA-MB-231 breast; 2.46 µM and 6.66 µM in the test on A498 renal; 7.11 µM and 5.59 µM in the test with SK-MEL-2 melanoma. Further, the TGI with RPMI-8226 leukemia was 8.86 µM and 9.44 µM.

On to `COc1ccc(-c2c(-c3cc(OC)c4c(c3)OCO4)noc2N)cc1`, for which the GI50 with HS 578T breast was 0.0302 µM; with SF-295 CNS, 0.0197 µM; in the test with HCT-15 colon, 0.0431 µM; in the test on MDA-MB-231 breast, 0.181 µM; in the test on A498 renal, 0.0268 µM; in the test with SK-MEL-2 melanoma, 0.0324 µM. Moreover, the GI50 is 0.0511 µM with RPMI-8226 leukemia and 0.093 µM with IGROV1 ovarian. The TGI in the test on HS 578T breast was 49.6 µM; with SF-295 CNS, 23.8 µM; in the test on HCT-15 colon, more than 100 µM; in the test on MDA-MB-231 breast, 16.9 µM; in the test with A498 renal it was 0.342 µM; in the test on SK-MEL-2 melanoma it was 21.5 µM. Besides, the TGI was 16.9 µM in the test with RPMI-8226 leukemia and more than 100 µM in the test with IGROV1 ovarian.

As to `CC(=O)OC1CC2C(C)(C)C(=O)C=CC2(C)C2CCC3(C)C(c4ccoc4)OC(=O)C4OC43C12C` (stereo unspecified), the TGI was more than 100 µM with HS 578T breast; more than 100 µM with SF-295 CNS; 35.4 µM with HCT-15 colon; 14.1 µM in the test with MDA-MB-231 breast; more than 100 µM in the test with A498 renal; 39.2 µM in the test with SK-MEL-2 melanoma. In addition, the TGI in the test with RPMI-8226 leukemia was 8.02 µM; in the test with IGROV1 ovarian it was more than 100 µM.

In the case of `CCC1CCc2nc3sc(C(=O)Nc4ccccc4C)c(N)c3cc2C1` (stereo unspecified), the GI50 in the test on HS 578T breast is 0.514 µM; in the test with SF-295 CNS, 0.354 µM; in the test with HCT-15 colon it was 0.339 µM; with MDA-MB-231 breast it was more than 100 µM; in the test on A498 renal, 0.313 µM; in the test with SK-MEL-2 melanoma, 0.46 µM. Further, the GI50 was 0.329 µM in the test on RPMI-8226 leukemia and more than 100 µM in the test with IGROV1 ovarian. In addition, the TGI with HS 578T breast, in the test with SF-295 CNS, with HCT-15 colon, in the test with MDA-MB-231 breast, in the test on A498 renal and in the test with SK-MEL-2 melanoma was more than 100 µM throughout. For the same molecule, the TGI with RPMI-8226 leukemia and in the test on IGROV1 ovarian was more than 100 µM throughout.
